Results as given in article PMC6208284 (Phytotherapy Research, 2018).

Legend:
[1] = test system: Leishmania tarentolae promastigotes (LtP); assay: Mitochondrial coupling (RCR) in LtP, Clark-type electrode, short- and long-term incubation; format: cell-based; conditions: 200 μM
Method: Direct inhibitors of mitochondrial ETC instantaneously influence mitochondrial oxygen consumption. To assay the effect of EO compounds on oxygen consumption of LtP, a Clark‐type oxygen electrode (Hansatech, Germany) and software MCREC were used. LtP at approximately 10^8 cells/ml in YEM (25 °C) were added and treated with increasing concentrations of EO compounds between 10 and 200 μM and for EO 5.6–89.6 μg/ml. Each concentration was assayed in quadruplicates, and the results were expressed as percentage of oxygen consumption in comparison with the untreated control LtP. The highest concentration of the vehicle (1% DMSO) caused only 2% inhibition. The uncoupling effect in short‐term and long‐term (0, 6, and 24 hr) incubations with Asc (200 μM) was studied in Oligo‐inhibited (5 μM) and uncoupler‐stimulated (0.5 μM CCCP) LtP in Schneider's medium supplemented with 6 μM hemin. Four replicates were performed for each concentration.

[2] = test system: Leishmania tarentolae promastigotes (LtP); assay: Low molecular thiols in LtP, CMFDA method; format: cell-based; conditions: 5 hr incubation at 26 °C, PBS/glucose
Method: LtP were centrifuged twice (1,800 g, 10 min, 20 °C), the cell pellets were resuspended in PBS/glucose (15 mM), and the cell number was adjusted to 1 × 10^7/ml. Aliquots (250 μl) were added to 96‐well plates (black, nontreated plates), along with compound stocks (keeping a maximum of 2% DMSO). Following a 5‐hr incubation at 26 °C, plates were centrifuged (1,800 g, 10 min, 20 °C), and 200 μl of supernatant was removed. To the remaining cell suspension, 100 μl of CMFDA in PBS was added giving a final concentration of 5 μM. After gentle shaking, the cells were incubated for 15 min at 37 °C in the dark. The fluorescence of the methyl fluorescein (MF)‐thiol adduct (Sarkar, Mandal, Singh, Sundar, & Chatterjee, 2009) was measured at 15, 30, 45, and 60 min at 485 nm (excitation wavelength) and 530 nm (emission wavelength) using a plate reader (PerkinElmer Enspire, Germany). The OD600 nm was determined for cell count, and the measured fluorescence intensity was normalized to the cell number. Three replicate measurements were performed for each condition.

Structure (SMILES)	Effect on mitochondrial coupling in LtP ([1]; immediately after addition)	RCR with respect to vehicle‐treated LtP ([1]; prolonged incubation (6 and 24 hr))	Low molecular thiol status (rate of thiol‐MF adduct formation) [2]
CC(C)C12C=CC(C)(CC1)OO2 (stereo not drawn) [Asc, ascaridole]	only little effects	declined	–
C=C1CC[C@H]2O[C@]2(C)CC[C@@H]2[C@@H]1CC2(C)C [Caryo, caryophyllene oxide]	–	–	decrease
